Source: patent US20110098267A1, “TOPICAL FORMULATIONS FOR THE TREATMENT OF PSORIASIS” (Synta Pharmaceuticals Corporation, priority 2008, published 2011)
Entries after “also recorded” stand apart in the source; their conditions may differ.

Tests used:
IL-10 = experiment: TaqMan RT-PCR gene expression in skin biopsies, clinical psoriasis study; type: in vivo, human; conditions: lesional psoriatic skin biopsies of patients, week 2 vs pre-treatment (wk0), oral dosing
Experimental: (§1) A multicenter, randomized, open-label, multiple oral dose outpatient study was done in patients with moderate to severe chronic plaque psoriasis. Patients received Compound 5021 mg or 35 mg orally twice daily (BID), 35 mg or 70 mg orally once per day (QD). Patients remained on study medication for a period of 12 weeks.
(§2) Lesional and nonlesional skin biopsies were collected from adults with chronic plaque-type psoriasis before and after treatment with Compound 50. The biopsies were processed using the QIAGEN RNeasy kit. Using a rotor-stator tissue homogenizer (saw-tooth rotor; PowerGen 700), frozen specimens were homogenized in buffer (RLT; QIAGEN) for 30-60 s and spun in a microcentrifuge for 3 min at room temperature to pellet debris. The supernatant was loaded onto a QIAGEN minicolumn and spun for 15s at high speed. A series of washes and DNase digestion was followed by final elution of RNA from the column. RNA was quantitated by UV spectrophotometry. The primers and probes for the TaqMan RT-PCR assays for IL-12/23 p40, IL-23 p19, and IL-10 were generated using the Primer Express algorithm version 1.0 from published sequences (National Center for Biotechnology Information). All primers and probes were synthesized by Applied Biosystems-PerkinElmer. RT-PCR reactions were performed according to the manufacturer's directions (EZ PCR Core Reagents; TaqMan and Applied Biosystems). The human acidic ribosomal protein gene (hARP), a housekeeping gene, was used to normalize each sample and each gene.
(§3) Gene expression levels at week 2 (wk2) were compared to pre-treatment levels in lesional psoriatic skin (wk0). […] In the same biopsy samples, an increase in mRNA IL-10, an anti-inflammatory cytokine, was observed (FIG. 1C).

IL-12/23 p40 = experiment: as above; type: in vivo, human; conditions: lesional psoriatic skin biopsies of patients, week 2 vs pre-treatment (wk0), oral dosing, normalized to hARP
Experimental: as §1, §2, §3

IL-23 p19 = experiment: as above; type: in vivo, human; conditions: lesional psoriatic skin biopsies of patients, week 2 vs pre-treatment (wk0), oral dosing, normalized to hARP
Experimental: as §1, §2, §3

[1] = system: CD11c+ cells (dendritic cells); experiment: Immunohistochemistry cell counts in skin biopsies, clinical psoriasis study; type: in vivo, human
Experimental: as §1
(§4) Tissue sections of skin biopsies were stained with hematoxylin (Fisher) and eosin (Shandon, Pittsburgh) and purified mouse anti-human mAbs to K16 (Sigma), CD3 (Becton Dickinson), CD11c (BD Pharmingen). Biotin-labeled horse anti-mouse antibody (Vector Laboratories) was amplified with avidin-biotin complex (Vector Laboratories) and developed with chromogen 3-amino-9-ethylcarbazole (Sigma Aldrich). Epidermal thickness measures were computed by using National Institutes of Health software (NIH IMAGE 6.1), and positive cells were counted manually by using computer-assisted image analysis.

CD3+ cells = experiment: as above; type: in vivo, human; conditions: week 12, patients receiving 70 mg once a day
Experimental: as §1, §4

[2] = API-excipient compatibility, 1 month at 40° C. and 60° C.; type: physicochemical; conditions: for % Deg. w/Main peak: 1 month 40° C.
Experimental: For the pre-formulation work Compound 50 was mixed with varying ratios of excipients commonly encountered in topical formulations.
The Compound 50 Pre-Formulation Studies began with the addition of each individual excipient to 500 mg of the Active Pharmaceutical Ingredient (API). Table I below explains the detail ratio between each excipient and API used for this study.
The samples, once prepared in scintillation vials, were kept at 40° C. and 60° C. for over one month. The samples were analyzed by the method (not validated) developed by the analytical support group.
The results in Tables III-V were analyzed with respect to Compound 50 standard to calculate % recovery of API in the presence of each excipient. […] Similar results in table V for samples 5-60° C., 6-60° C., 7-60° C., 8-60° C., 10-60° C., 17-60° C., and 18-60° C. were obtained which needs to be further analyzed.

[3] = Water solubility (statement); type: physicochemical
CD83 and CD11c = conditions: responders of Alefacept therapy; cited from earlier work
[4] = week 12, patients receiving 70 mg once a day

% Deg. w/Main peak ([2]; with Methylparaben, 1st impurity peak RRT 0.52) [%] | w/Main Peak ([2]; with Methylparaben, 1 month 60° C., impurity peak 0.51) [%] | w/Main Peak ([2]; with PEG-300, 1 month 60° C., impurity peak 0.60) [%] | w/Main Peak ([2]; with PEG-400, 1 month 60° C., impurity peak 0.60) [%] | w/Main Peak ([2]; with Polysorbate 80, 1 month 60° C., impurity peak 0.60) [%] | w/Main Peak ([2]; with Propylene Glycol, 1 month 60° C., impurity peak 0.60) [%] | % Deg. w/Main peak ([2]; with Propylparaben, 1st impurity peak RRT 0.78) [%] | w/Main Peak ([2]; with Propylparaben, 1 month 60° C., impurity peak 0.78) [%] | w/Main Peak ([2]; with Sorbitan Monooleate, 1 month 60° C., impurity peak 0.59) [%] | water solubility [3] | Molecule | IL-10 mRNA (IL-10) | IL-12/23 p40 gene expression (IL-12/23 p40) | IL-23 p19 gene expression (IL-23 p19) | CD11c+ cells in epidermis count ([1]; all nonresponders, week 12) | decrease in CD11c+ cells in epidermis ([1]; all responder patients (histological improvement at week 12)) [%] | CD11c+ cells in dermis (CD11DER) [1, 4] | CD11c+ cells in epidermis (CD11EPI) [1, 4] | CD3+ cells in dermis (CD3DER) (CD3+ cells) | CD3+ cells in epidermis (CD3EPI) (CD3+ cells) | CD83 and CD11c immunostaining (CD83 and CD11c)
0.34 | 13.75 | 0.51 | 1.87 | 1.30 | 0.11 | 8.96 | 6.37 | 8.25 | not water soluble | Cc1cccc(/C=N/Nc2cc(N3CCOCC3)nc(OCCc3ccccn3)n2)c1 [Compound 50, N-(3-Methyl-benzylidene)-N′-[6-morpholin-4-yl-2-(2-pyridin-2-yl-ethoxy)-pyrimidin-4-yl]-hydrazine] | increase | reduced; also recorded: decrease | reduced; also recorded: decrease | no significant reduction | ~100 | significant but less pronounced decreases | marked decrease | significant but less pronounced decreases | significant but less pronounced decreases | –
– | – | – | – | – | – | – | – | – | – | Alefacept | – | – | – | – | – | – | – | – | – | decreases
